The experiment concerns SW1353. In words: relative viability vs DMSO control (72 h) (fraction); higher = more viable cells. The method in brief:
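A 5 µM positive control and 0.1% DMSO vehicle ran alongside sarcoma cell lines seeded in 384-well plates to reach 80–90% confluence. Serially diluted compound, 2.5 µl from source plates of 10 mM to 0.0002 mM, was added after 24 h, and the plates were held 72 h at 37 °C, 5% CO2. Relative viability was worked out from ATPLite readings as percent growth averaged over up to triplicate wells. The values were rescaled so that 1 is full and 0 is none.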

Structures are written as SMILES. ± gives the standard deviation of the averaged measurements.

For the compound `C=CC(=O)Nc1cccc(Oc2nc(Nc3ccc(N4CCN(C)CC4)cc3)nc3ccsc23)c1` [Olmutinib], the relative viability was determined as 1.03 ± 0.048 (0.00017 µM); 1.06 ± 0.059 (0.00051 µM); 1.04 ± 0.013 (0.00152 µM); 1.04 ± 0.048 (0.00457 µM); 1.03 ± 0.038 (0.01372 µM); 1.02 ± 0.03 (0.04115 µM). Also, the relative viability is, setting by setting: (0.1235 µM) 0.997 ± 0.031; (0.3704 µM) 0.95 ± 0.086; (1.111 µM) 0.857 ± 0.021; (3.333 µM) 0.755 ± 0.012; (10 µM) 0.104 ± 0.0062.
`CNC(=O)c1cc(Oc2ccc(NC(=O)Nc3ccc(Cl)c(C(F)(F)F)c3)c(F)c2)ccn1` [Regorafenib]: the relative viability (0.00017 µM) is 1.11 ± 0.029; the relative viability (0.00051 µM) amounted to 1.05 ± 0.05; the relative viability (0.00152 µM) stood at 1.07 ± 0.017; the relative viability (0.00457 µM) was 1.08 ± 0.021; the relative viability (0.01372 µM) is 1.04 ± 0.096; the relative viability (0.04115 µM) worked out at 1.01 ± 0.043. For the same compound, the relative viability reads like this: (0.1235 µM) 1.08 ± 0.044; (0.3704 µM) 0.996 ± 0.07; (1.111 µM) 0.978 ± 0.047; (3.333 µM) 0.919 ± 0.036; (10 µM) 0.555 ± 0.02.
As to `COc1cc2c(cc1O)CCN[C@]21CS[C@@H]2c3c(OC(C)=O)c(C)c4c(c3[C@H](COC1=O)N1[C@@H]2[C@H]2c3c(cc(C)c(OC)c3O)C[C@@H]([C@@H]1O)N2C)OCO4` [Trabectedin], the relative viability is 1.09 ± 0.017 (2 pM); 1.09 ± 0.027 (5 pM); 1.06 ± 0.03 (15 pM); 1.04 ± 0.013 (50 pM); 1.04 ± 0.03 (0.00014 µM); 0.92 ± 0.018 (0.00041 µM). Also, the relative viability by setting is: (0.0012 µM) 0.0356 ± 0.003; (0.0037 µM) 0.229 ± 0.0077; (0.011 µM) 0.186 ± 0.015; (200 fM) 1.1 ± 0.027; (600 fM) 1.1 ± 0.012.

Values taken from the supplement of paper PMC10883282.
